According to US10160705B2, “Class of HDAC inhibitors expands the renal progenitor cells population and improves the rate of recovery from acute kidney injury” (University of Pittsburgh—Of the Commonwealth System of …, priority 2011, dated 2018):
Read-outs that look alike come from different tables or passages of the source.

How the values were obtained:
zebrafish embryos = test: Phenotypic screen for edema and survival in zebrafish larvae at 72 hpf; settings: for Dead / Edemic 1 (E1) / Edemic 2 (E2) / Edemic 3 (E3) / Wild-type (WT): number of larvae (of 36), 3 μM from 2 hpf, scored at 72 hpf; for effect on zebrafish embryos in the phenotypic screen: 3 μM
Experimental: The screen was performed in zebrafish embryos using the National Cancer Institute's Developmental Therapeutics Program (NCI/DTP) Diversity Set I. This library contains 1990 compounds selected by pharmacophore modeling to represent the more than 140,000 small molecules maintained in the NCI/DTP Open Repository. Compounds from the NCI/DTP Diversity Set I were diluted to 10 μM in E3 embryo medium (5 mM NaCl, 0.33 mM CaCl2, 0.33 mM MgSO4, and 0.17 mM KCl) in a final DMSO concentration of 0.5% and arrayed in 96-well plates. Beginning at approximately 2 hpf, embryos were transferred to each well in groups of five using a glass pipette. The plates were incubated at 28.5° C. for 70 hours. Individual wells were then scored for a dominant phenotype, representative of at least four of the five embryos. The primary objective was to identify compounds that caused edema in treated embryos at 72 hpf. Small molecules generating edema were retested once for verification, before obtaining additional compound from the NCI/DTP Open Repository.
PTBA was synthesized as described below. Hydroxyurea and aphidicolin were obtained from Sigma-Aldrich. Groups of 20 to 30 chorionated 2 hpf embryos were arrayed in individual wells of 12-well plates. E3 medium was removed with a glass pipette and replaced with 1.5 ml treatment solutions containing 0.5% DMSO in E3 with or without compound at the reported concentrations. Treatments for all studies were initiated at 2 hpf, except for the temporal studies (FIG. 6) and the HUA studies (FIG. 11). HUA studies were performed as described previously (Zhang, L., et al. Cell cycle progression is required for zebrafish somite morphogenesis but not segmentation clock function. Development 135, 2065-2070, (2008)), with the following modifications. HUA in 0.5% DMSO was added at early gastrulation (5 hpf) and PTBA was subsequently added at late gastrulation (8 hpf) to allow for penetration of the proliferation inhibitors. All embryos were incubated at 28.5° C. until the required developmental stage.
Following 70 hours of treatment (as described above), edemic phenotypes in 72 hpf larvae were scored using a phenotype-based classification system. Wild type: no visible edema or developmental delay. […] Significant effects (p<0.05) on survival were determined by two-tailed Fisher's exact test in comparison with the 0 μM PTBA treatment group.
PTBA and methyl-4-(phenylthio)butanoate were synthesized as described above. 4-(Naphthalen-2-ylthio)butanoic acid (NSC2733) and 3-(phenylthio)benzoic acid (NSC113994), were obtained from the NCI/DTP Open Repository. APHA compound 8, Apicidin, butanoic acid, PBA, 4-phenoxybutanoic acid, 5-phenylpentanoic acid, Scriptaid, TSA, and valproic acid were obtained from Sigma-Aldrich. MS-275 and SAHA were obtained from Cayman Chemical Co. 4-(phenylsulfonyl)butanoic acid was obtained from Matrix Scientific. Tubacin was a gift of Dr. Ralph Mazitschek of the Broad Institute (Cambridge, Mass.). The remaining PTBA analogs were synthesized. Three independent groups of 12 chorionated 2 hpf embryos were arrayed in individual wells of 24-well plates. E3 medium was removed with a glass pipette and replaced with 800 μl treatment solutions containing 0.5% DMSO in E3 with or without compound at the reported concentrations.
Phenotypic screening of PTBA analogs was performed identically to the concentration-response experiments detailed above. Embryos were treated with each PTBA analog from 2 to 72 hpf as described above.

renal progenitor cells = test: In situ hybridization for lhx1a expression in 10-somite embryos (renal progenitor cell expansion); type: in vivo; settings: for responders at 3 µM / responders at 1.5 µM / responders at 0.2 µM / responders at 0.4 µM / EC50 / responders at 0.8 µM: Danio rerio; for Lhx1a expansion caused by analog treatment, 800 nM: 800 nM from 2 hpf; for responders at 0.2 µM: 200 nM, read-out: Expansion of Cells (including repeats* and recounts**) 200 nM; for responders at 0.4 µM: 400 nM, read-out: Expansion of Cells (including repeats* and recounts**) 400 nM; for EC50: first pass EC50 from percent expansion (Excel trendline), average where several experiments; for responders at 0.8 µM: 800 nM, read-out: Expansion of Cells (including repeats* and recounts**) 800 nM; as to Lhx1a expansion caused by analog treatment, 200 nM: key: effective (+); partially effective (+/−); ineffective (−); Analogs that killed all embryos at a given concentration before reaching 10 somites are listed as XX; as to Lhx1a expansion caused by analog treatment, 3 μM: key: effective (+); partially effective (+/−); ineffective (−); Analogs that killed all embryos at a given concentration before reaching 10 somites are listed as XX; as to Lhx1a expansion caused by analog treatment, 400 nM: key: effective (+); partially effective (+/−); ineffective (−); Analogs that killed all embryos at a given concentration before reaching 10 somites are listed as XX; as to Lhx1a expansion caused by analog treatment, 800 nM: key: effective (+); partially effective (+/−); ineffective (−); Analogs that killed all embryos at a given concentration before reaching 10 somites are listed as XX
Experimental: PTBA was synthesized as described below. Hydroxyurea and aphidicolin were obtained from Sigma-Aldrich.
In situ hybridization and immunocytochemistry: In situ hybridization was performed as previously described with some modifications.142 Hybridization temperature was 65° C. Embryos were blocked in 2% blocking reagent (Roche) with 5% sheep serum in MAB (100 mM maleic acid and 150 mM NaCl [pH 7.5]). Whole-mount immunocytochemistry with 1:25 mouse anti-α6F antibody (Developmental Studies Hybridoma Bank) and 1:100 Cy3 secondary antibody (Jackson ImmunoResearch) was performed as described previously.108 Embryos were embedded in JB-4 for sectioning per the manufacturer's instructions (Polysciences), sectioned at 5 μm, and mounted with Cytoseal 60 (Richard-Allan Scientific).
The remaining PTBA analogs were synthesized.
In situ hybridization for lhx1a was performed as described above. […] Compounds were classified as effective, partially-effective or ineffective based on comparison to the effects of PTBA at a given concentration.
Testing of the compounds is on-going, but for those tested, Table 6 provides first pass EC50s based upon colormetric in situ hybridizations for the Lhx1a mRNA expression levels. After the procedure is run, in situ hybridization is done for the lhx1 mRNA expression and the number of embryos that show an expanded kidney field is manually counted to establish the percent of embryos showing expansion. Then the EC50 is determined by plotting the percent expansion in Excel, graphing the results and using the trendline function to determine the 50 percent point.

[1] = 3 μM from 2 hpf, 10-somite embryos
[2] = 1.5 μM from 2 hpf, 10-somite embryos
[3] = 1.5 μM from 2 hpf, 10-somite embryos, read-out: lhx1a expansion, percent of treated embryos
[4] = percent of embryos with expanded kidney field, 1.5 μM, read-out: Expansion of Cells (including repeats* and recounts**) 1.5 μM
[5] = percent of embryos with expanded kidney field, 3 μM, read-out: Expansion of Cells (including repeats* and recounts**) 3 μM
[6] = percent of embryos with expanded kidney field

Compound | Dead (zebrafish embryos) | Edemic 1 (E1) (zebrafish embryos) | Edemic 2 (E2) (zebrafish embryos) | Edemic 3 (E3) (zebrafish embryos) | Wild-type (WT) (zebrafish embryos) | Lhx1a expansion caused by analog treatment, 3 μM (renal progenitor cells; [1]) | lhx1a expansion, percent of treated embryos (renal progenitor cells; [1]) | effect on zebrafish embryos in the phenotypic screen (zebrafish embryos) | responders at 3 µM (renal progenitor cells; 3 μM from 2 hpf, 10-somite embryos, read-out: lhx1a expansion, percent of treated embryos) [%] | Lhx1a expansion caused by analog treatment, 1.5 μM (renal progenitor cells; [2]) | responders at 1.5 µM (renal progenitor cells; [3]) [%] | responders at 1.5 µM (renal progenitor cells; [4]) [%] | responders at 3 µM (renal progenitor cells; [5]) [%] | Lhx1a expansion caused by analog treatment, 800 nM (renal progenitor cells; 10-somite embryos) | responders at 0.2 µM (renal progenitor cells; [6]) [%] | responders at 0.4 µM (renal progenitor cells; [6]) [%] | EC50 (renal progenitor cells) [nM] | Lhx1a expansion caused by analog treatment, 200 nM (renal progenitor cells; 200 nM from 2 hpf, 10-somite embryos) | Lhx1a expansion caused by analog treatment, 400 nM (renal progenitor cells; 400 nM from 2 hpf, 10-somite embryos) | responders at 0.8 µM (renal progenitor cells; [6]) [%]
O=C(O)CCCCc1ccccc1 [5-phenylpentanoic acid, reference compound] | 0 | 0 | 0 | 0 | 36 | − | no expansion |  |  |  |  |  |  |  |  |  |  |  |  | 
Cn1cc(C(=O)Cc2ccccc2)cc1/C=C/C(=O)NO [APHA compound 8, reference compound] | 0 | 0 | 0 | 0 | 36 | − |  |  |  |  |  |  |  |  |  |  |  |  |  | 
Nc1ccccc1NC(=O)c1ccc(CNC(=O)OCc2cccnc2)cc1 [MS-275, reference compound] | 0 | 0 | 0 | 0 | 36 | − |  | no effect |  |  |  |  |  |  |  |  |  |  |  | 
O=C(CCCCCCC(=O)Nc1ccccc1)NO [SAHA, reference compound] | 0 | 0 | 0 | 0 | 36 | − |  | no effect |  |  |  |  |  |  |  |  |  |  |  | 
O=C(CCCCCN1C(=O)c2cccc3cccc(c23)C1=O)NO [Scriptaid, reference compound] | 0 | 1 | 0 | 0 | 35 | +/− |  |  | 39 |  |  |  |  |  |  |  |  |  |  | 
COC(=O)CCCSc1ccc(Cl)cc1 [UPHD-00021, methyl 4-[(4-chloro-phenyl)sulfanyl]butanoate] | 1 | 10 | 6 | 19 | 0 | + |  |  |  | +/− | 72 | 72 | 97 |  |  |  |  |  |  | 
O=C(CCCSc1ccccc1)NO [UPHD-00023, N-hydroxy- 4(phenyl- sulfanyl)butanamide] | 0 | 3 | 20 | 13 | 0 | + |  |  |  | + | 92 | 92 | 100 | +/− | 0 | 6 | 1300 |  |  | 
CCCOC(=O)CCCSc1ccccc1 [UPHD-00024, propyl 4-(phenylsulfanyl)butanoate] | 6 | 7 | 8 | 15 | 0 | + |  |  |  | + | 89 | 89 | 94 | +/− | 0 | 10 | 1270 |  |  | 
COC(=O)CCCSc1ccc(C)cc1 [UPHD-00026, methyl 4-[(4-methyl-phenyl)sulfanyl]butanoate] | 11 | 0 | 2 | 23 | 0 | + |  |  |  | + | 100 | 100 | 100 | + | 3 | 14 |  | − | − | 49
O=C(CCCSc1ccc(Cl)cc1)NO [UPHD-00027, 4-[(4-chloro-phenyl)sulfanyl]-N-hydroxybutanamide] | 14 | 0 | 0 | 22 | 0 | + |  |  |  | + | 97 | 97 | 94 | +/− |  |  |  |  |  | 17
